From ChEMBL document CHEMBL4304783, “Discovery of a Novel Selective Dual Peroxisome Proliferator-Activated Receptor α/δ Agonist for the Treatment of Primary Biliary Cirrhosis” (ACS Med Chem Lett, 2019)

Experiments:
[1] = target: T1, Peroxisome proliferator-activated receptor gamma (Homo sapiens, UniProt P37231); test: Agonist activity at PPARgamma (unknown origin) incubated for 3 to 16 hrs by pathhunter nuclear hormone receptor assay
T1 sequence (P37231 whole entry): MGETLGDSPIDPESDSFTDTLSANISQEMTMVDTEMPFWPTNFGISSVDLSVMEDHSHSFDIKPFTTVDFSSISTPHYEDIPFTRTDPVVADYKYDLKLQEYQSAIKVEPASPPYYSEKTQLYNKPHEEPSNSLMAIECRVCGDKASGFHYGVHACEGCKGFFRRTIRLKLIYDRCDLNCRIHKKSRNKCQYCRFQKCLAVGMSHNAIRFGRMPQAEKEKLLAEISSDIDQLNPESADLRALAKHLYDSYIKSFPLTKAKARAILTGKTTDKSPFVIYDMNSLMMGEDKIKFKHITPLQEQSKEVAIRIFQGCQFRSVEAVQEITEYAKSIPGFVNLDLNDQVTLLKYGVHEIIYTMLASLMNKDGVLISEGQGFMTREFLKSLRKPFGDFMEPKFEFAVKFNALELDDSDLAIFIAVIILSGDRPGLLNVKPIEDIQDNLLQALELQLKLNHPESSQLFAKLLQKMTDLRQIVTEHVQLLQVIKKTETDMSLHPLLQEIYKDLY

[2] = Stability in rat plasma assessed as remaining compound incubated for 2 hrs; format: ADME, cell-free; conditions: read-out: Stability
[3] = Protein binding in human plasma at 2 uM incubated for 4 hrs by LC-MS/MS analysis; format: ADME, cell-free
[4] = Protein binding in rat plasma at 2 uM incubated for 4 hrs by LC-MS/MS analysis; format: ADME, cell-free
[5] = Apparent permeability across apical to basolateral side in human Caco2 cells at 2 uM incubated for 120 mins by LC-MS/MS analysis; format: ADME, cell-based; conditions: Caco-2
[6] = Apparent permeability across basolateral to apical side in human Caco2 cells at 2 uM incubated for 120 mins by LC-MS/MS analysis; format: ADME, cell-based; conditions: Caco-2
[7] = Efflux ratio of apparent permeability across basolateral to apical over apical to basolateral side in human Caco2 cells at 2 uM incubated for 120 mins by LC-MS/MS analysis; format: ADME, cell-based; conditions: Caco-2
Cytochrome P450 1A2 = target: T2, Cytochrome P450 1A2 (Homo sapiens, UniProt P05177); test: Inhibition of CYP1A2 in human liver microsomes using phenacetin as substrate incubated for 10 mins followed by substrate addition further incubated for 10 mins by LC-MS/MS analysis; format: ADME
T2 sequence (P05177 whole entry): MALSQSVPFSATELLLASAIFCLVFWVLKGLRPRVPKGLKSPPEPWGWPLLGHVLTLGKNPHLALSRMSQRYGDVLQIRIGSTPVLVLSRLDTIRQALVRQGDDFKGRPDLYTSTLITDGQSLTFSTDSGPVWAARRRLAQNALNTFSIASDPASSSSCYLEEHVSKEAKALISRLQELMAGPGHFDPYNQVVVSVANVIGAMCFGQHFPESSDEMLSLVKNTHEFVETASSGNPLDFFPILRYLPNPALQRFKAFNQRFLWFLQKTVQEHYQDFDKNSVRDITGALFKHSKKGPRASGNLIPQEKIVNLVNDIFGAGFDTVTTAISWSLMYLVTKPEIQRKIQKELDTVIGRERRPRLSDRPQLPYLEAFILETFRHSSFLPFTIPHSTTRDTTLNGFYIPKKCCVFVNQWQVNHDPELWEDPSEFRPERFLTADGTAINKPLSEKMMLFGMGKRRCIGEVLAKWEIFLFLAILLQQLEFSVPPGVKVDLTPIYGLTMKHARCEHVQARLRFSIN

Cytochrome P450 3A4 = Cytochrome P450 3A4 (Homo sapiens, UniProt P08684); test: Inhibition of CYP3A4 in human liver microsomes using midazolam as substrate incubated for 10 mins followed by substrate addition further incubated for 10 mins by LC-MS/MS analysis; format: ADME
[8] = Clearance in C57BL/6J mouse at 1 mg/kg, iv measured upto 24 hrs by LC-MS/MS analysis; format: ADME, organism-based; conditions: in vivo
[9] = Cmax in C57BL/6J mouse at 10 mg/kg, po measured upto 24 hrs by LC-MS/MS analysis; format: ADME, organism-based; parameters: dose 10 mg/kg, route oral; conditions: in vivo
[10] = Tmax in C57BL/6J mouse at 10 mg/kg, po measured upto 24 hrs by LC-MS/MS analysis; format: ADME, organism-based; conditions: in vivo
[11] = Half life in Sprague-Dawley rat at 1 mg/kg, iv measured upto 24 hrs by LC-MS/MS analysis; format: ADME, organism-based; conditions: in vivo
[12] = AUC (0 to last) in Sprague-Dawley rat at 1 mg/kg, iv measured upto 24 hrs by LC-MS/MS analysis; format: ADME, organism-based; parameters: dose 1 mg/kg, route intravenous, time 0 - last; conditions: in vivo
[13] = Tmax in Sprague-Dawley rat at 10 mg/kg, po measured upto 24 hrs by LC-MS/MS analysis; format: ADME, organism-based; conditions: in vivo
Bile acid receptor = target: T3, Bile acid receptor (Homo sapiens, UniProt Q96RI1); test: Binding affinity to human recombinant GST-tagged FXR LBD (193-472 residues) expressed in baculovirus infected insect cells incubated for 1 hr by luminometry
T3 sequence (Q96RI1 whole entry): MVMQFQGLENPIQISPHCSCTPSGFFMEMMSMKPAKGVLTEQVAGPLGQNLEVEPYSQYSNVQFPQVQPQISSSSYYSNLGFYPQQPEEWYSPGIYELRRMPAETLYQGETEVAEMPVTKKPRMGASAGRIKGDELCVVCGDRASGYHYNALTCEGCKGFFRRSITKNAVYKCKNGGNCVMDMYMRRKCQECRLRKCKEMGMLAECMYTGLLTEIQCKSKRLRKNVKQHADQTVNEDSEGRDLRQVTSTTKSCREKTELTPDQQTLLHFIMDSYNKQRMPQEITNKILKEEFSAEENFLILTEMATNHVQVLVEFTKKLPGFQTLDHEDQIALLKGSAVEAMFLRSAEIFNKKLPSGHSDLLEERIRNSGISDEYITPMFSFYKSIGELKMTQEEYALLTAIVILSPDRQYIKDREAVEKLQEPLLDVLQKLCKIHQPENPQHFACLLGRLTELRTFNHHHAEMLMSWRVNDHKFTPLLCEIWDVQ

[14] = Oral bioavailability in C57BL/6J mouse at 10 mg/kg upto 24 hrs by LC-MS/MS analysis; conditions: in vivo
[15] = Oral bioavailability in Sprague-Dawley rat at 10 mg/kg measured upto 24 hrs by LC-MS/MS analysis; conditions: in vivo

Cytochrome P450 3A4, sequence (P08684 whole entry): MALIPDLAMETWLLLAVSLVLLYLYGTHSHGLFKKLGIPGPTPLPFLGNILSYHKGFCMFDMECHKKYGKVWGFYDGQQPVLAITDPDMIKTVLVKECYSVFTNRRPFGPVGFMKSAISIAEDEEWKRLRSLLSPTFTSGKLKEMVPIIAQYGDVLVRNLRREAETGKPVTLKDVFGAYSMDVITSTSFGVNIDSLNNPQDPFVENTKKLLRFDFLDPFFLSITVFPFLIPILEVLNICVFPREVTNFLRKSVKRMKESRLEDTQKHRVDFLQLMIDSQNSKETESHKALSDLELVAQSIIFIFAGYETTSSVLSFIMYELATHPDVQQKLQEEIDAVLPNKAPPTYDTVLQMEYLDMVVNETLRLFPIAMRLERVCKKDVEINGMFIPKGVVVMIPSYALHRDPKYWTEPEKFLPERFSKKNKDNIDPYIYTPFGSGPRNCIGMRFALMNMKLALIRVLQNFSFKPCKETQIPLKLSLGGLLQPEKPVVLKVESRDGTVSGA

Structure (SMILES): Cc1cc(Cc2cc(-c3ccc(Br)cc3)on2)cc(C)c1OC(C)(C)C(=O)O
- EC50 [1]: 2.94 µM
- remaining at 2 h [2]: 96%
- fraction unbound at 4 h, 2 µM [3]: < 0.001
- fraction unbound at 4 h, 2 µM [4]: < 0.001
- Papp A→B at 2 h, 2 µM [5]: 0.5 ×10⁻⁶ cm/s
- Papp B→A at 2 h, 2 µM [6]: 0.2 ×10⁻⁶ cm/s
- efflux ratio at 2 h, 2 µM [7]: 0.4
- IC50 (Cytochrome P450 1A2): 10 µM
- IC50 (Cytochrome P450 3A4): > 50 µM
- clearance [8]: 3.53 mL/min/kg
- Cmax [9]: 52 µM
- Tmax [10]: 0.33 h
- half-life [11]: 6 h
- AUC(0-t) at 24 h [12]: 105 µM·h
- Tmax [13]: 1.33 h
- IC50 (Bile acid receptor): > 50 µM
- bioavailability [14]: 59.8%
- bioavailability [15]: 53.3%
